How the values were obtained:
GDC-0623 = compound: O=C(NOCCO)c1ccc2cncn2c1Nc1ccc(I)cc1F [GDC-0623]; assay: absolute IC70 (antiproliferative, propidium iodide); higher = less potent; details: exposure time: 4 days
Experimental: (§1)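 Modified propidium iodide survival/proliferation assay in 294 human tumor cell lines (2D monolayer for solid tumors, suspension for hematologic lines) after 4 days of continuous exposure to 10 concentrations in half-log steps from 0.001 to 30 µM. Absolute IC70 was fitted by four-parameter nonlinear regression of T/C × 100 (%) values; 30 µM is the top dose.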

[1] = compound: CCNC(=O)C#Cc1ccc2c(C(=Nc3ccc(CN(C)C)cc3)c3ccccc3)c(O)[nH]c2c1; assay: as above; details: exposure time: 4 days
Experimental: as §1

| Test System | absolute IC70 (GDC-0623) [µM] | absolute IC70 [1] [µM] |
| --- | --- | --- |
| OE21 | > 30 | 2.21 |
| DMS-273 | > 30 | 5.12 |
| HUT-78 | > 30 | 0.072 |
| PAXF_2035 | 17.2 | 0.855 |
| BT-474 | > 30 | 4.06 |
| LXFA_1647 | 0.221 | 0.248 |
| MKN1 | > 30 | 0.289 |
| OVXF_1023 | > 30 | 14.2 |
| HEC-1-A | > 30 | 1.58 |
| MEXF_1737 | 0.011 | 0.048 |
| MSTO-211H | 1.48 | 0.494 |
| KYSE-70 | > 30 | 1.04 |
| LIM2551 | 0.00368 | 0.00749 |
| GXA_3080 | 0.117 | 0.114 |
| ACHN | > 30 | 0.765 |
| LXFA_677 | 0.168 | 0.269 |
| U-251MG | 0.783 | 1.18 |
| T47D | > 30 | 6.84 |
| SK-GT-2 | > 30 | 2.8 |
| MDA-MB-468 | 2.24 | 0.347 |
| MOLM-13 | 0.448 | 0.008 |
| LXFA_629 | > 30 | 0.75 |

| Test System | absolute IC70 (GDC-0623) [µM] | absolute IC70 [1] [µM] |
| --- | --- | --- |
| OPM-2 | > 30 | 0.336 |
| JURL-MK1 | 0.011 | 0.149 |
| SW1710 | 3.74 | 0.525 |
| PAXF_1657 | 0.26 | 0.564 |
| SW579 | 0.204 | 0.279 |
| EGI-1 | > 30 | 0.693 |
| LXFA_623 | 1.01 | 0.96 |
| SNU-423 | > 30 | 1.32 |
| OCUM-1 | 0.011 | 0.025 |
| DIFI | 0.522 | 0.091 |
| SK-LMS-1 | 0.368 | 0.937 |
| SNU-601 | > 30 | 3 |
| RXF_2516 | 8.07 | 0.164 |
| Saos-2 | > 30 | 0.593 |
| SK-OV-3 | > 30 | 13.4 |
| BT-549 | > 30 | 1.78 |
| HH | > 30 | 1.37 |
| MCF 10A | 0.048 | 0.031 |
| VCAP | > 30 | 5.03 |
| SK-MES-1 | 0.235 | 0.617 |
| CCRF-CEM-VCR | > 30 | 0.073 |
| MEXF_2090 | 0.004 | 0.093 |

| Test System | absolute IC70 (GDC-0623) [µM] | absolute IC70 [1] [µM] |
| --- | --- | --- |
| SNU-475 | > 30 | 3.55 |
| TK10 | > 30 | 0.873 |
| NCI-H2171 | > 30 | 0.024 |
| PA-TU-8988T | > 30 | 0.773 |
| GXF_1172 | 1.27 | 0.51 |
| A172 | 1.59 | 0.252 |
| A498 | > 30 | 4.34 |
| NCI-H322M | 0.105 | 0.391 |
| KYSE-180 | > 30 | 1 |
| RPMI-2650 | > 30 | 2.15 |
| SW620 | 0.01 | 0.069 |
| MDA-MB-453 | > 30 | 2.48 |
| PAXF_1986 | 0.092 | 0.414 |
| CXF_260 | 0.194 | 0.324 |
| GXA_3023 | 1.44 | 0.069 |
| HCC1937 | > 30 | 0.475 |
| MEXF_622 | 0.04 | 0.227 |
| UOC-M1 | > 30 | 0.012 |
| KLE | > 30 | 5.42 |
| 786-O | > 30 | 1.17 |
| PL-21 | 0.365 | 0.338 |
| NCI-H1299 | > 30 | 1.18 |

— the supplement of paper PMC10599287
